Laboratory results reported in the supplement of paper PMC10307832.

Assays:
Assay in all cases: relative viability (nuclei count vs DMSO), 5 days (fraction); higher = more cells survive
GW-2580 + Navitoclax = compound: COC1=CC=C(C=C1)COC2=C(C=C(C=C2)CC3=CN=C(N=C3N)N)OC [GW-2580] + CC1(C)CCC(c2ccc(Cl)cc2)=C(CN2CCN(c3ccc(C(=O)NS(=O)(=O)c4ccc(N[C@H](CCN5CCOCC5)CSc5ccccc5)c(S(=O)(=O)C(F)(F)F)c4)cc3)CC2)C1 [Navitoclax] (partner 0.5 µM)
Method in brief: (§1)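 A single step with final 0.05% Triton X-100, 1% formaldehyde and 1 ug/ml Hoechst fixed the cells and stained nuclei 5 days after treatment. Lung cancer cell lines in 1536-well plates had been treated by pin tool the day after seeding with one drug alone or a fixed anchor-drug dose plus five library-drug doses (not always all listed) in √10 steps, and nuclei were counted on 4× images. Relative viability is the ratio of nuclei in treated wells to nuclei in vehicle wells, taken as the median of duplicate plates.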

Fedratinib + Phenformin = compound: Cc1cnc(Nc2ccc(OCCN3CCCC3)cc2)nc1Nc1cccc(S(=O)(=O)NC(C)(C)C)c1 [Fedratinib] + N=C(N)NC(=N)NCCc1ccccc1 [Phenformin] (partner 250 µM)
Method in brief: as §1

GW-2580 + Linsitinib = compound: COC1=CC=C(C=C1)COC2=C(C=C(C=C2)CC3=CN=C(N=C3N)N)OC [GW-2580] + C[C@]1(O)C[C@@H](c2nc(-c3ccc4ccc(-c5ccccc5)nc4c3)c3c(N)nccn32)C1 [Linsitinib] (partner 1 µM)
Method in brief: as §1

GW-2580 + Trametinib = compound: COC1=CC=C(C=C1)COC2=C(C=C(C=C2)CC3=CN=C(N=C3N)N)OC [GW-2580] + CC(=O)Nc1cccc(-n2c(=O)n(C3CC3)c(=O)c3c(Nc4ccc(I)cc4F)n(C)c(=O)c(C)c32)c1 [Trametinib] (partner 0.02 µM)
Method in brief: as §1

GW-2580 + Palbociclib = compound: COC1=CC=C(C=C1)COC2=C(C=C(C=C2)CC3=CN=C(N=C3N)N)OC [GW-2580] + CC(=O)c1c(C)c2cnc(Nc3ccc(N4CCNCC4)cn3)nc2n(C2CCCC2)c1=O [Palbociclib] (partner 0.5 µM)
Method in brief: as §1

Cell Line	relative viability (GW-2580 + Navitoclax; first compound 0.08 µM)	relative viability (GW-2580 + Navitoclax; first compound 0.8 µM)	relative viability (GW-2580 + Navitoclax; first compound 2.53 µM)	relative viability (GW-2580 + Navitoclax; first compound 8 µM)	relative viability (Fedratinib + Phenformin; first compound 0.1 µM)	relative viability (Fedratinib + Phenformin; first compound 0.3162 µM)	relative viability (Fedratinib + Phenformin; first compound 1 µM)	relative viability (GW-2580 + Linsitinib; first compound 0.08 µM)	relative viability (GW-2580 + Linsitinib; first compound 0.8 µM)	relative viability (GW-2580 + Linsitinib; first compound 2.53 µM)	relative viability (GW-2580 + Linsitinib; first compound 8 µM)	relative viability (GW-2580 + Trametinib; first compound 0.08 µM)	relative viability (GW-2580 + Trametinib; first compound 0.8 µM)	relative viability (GW-2580 + Trametinib; first compound 2.53 µM)	relative viability (GW-2580 + Trametinib; first compound 8 µM)	relative viability (GW-2580 + Palbociclib; first compound 0.08 µM)	relative viability (GW-2580 + Palbociclib; first compound 0.8 µM)	relative viability (GW-2580 + Palbociclib; first compound 2.53 µM)	relative viability (GW-2580 + Palbociclib; first compound 8 µM)
HCC-366	1.27	1.17	1.13	1.11	0.482	0.673	0.642	0.51	0.678	0.496	0.882	0.344	0.401	0.295	0.412	0.388	0.475	0.488	0.405
HCC-827	1.06	0.952	0.898	0.92	0.388	0.42	0.464	0.975	1.03	1.01	0.961	0.555	0.552	0.483	0.568	0.571	0.531	0.479	0.467
HOP-62	1.15	1.05	0.984	1.26	0.682	0.601	0.631	1.05	0.953	0.877	0.982	0.406	0.412	0.359	0.378	0.584	0.438	0.481	0.515
IA-LM	0.895	0.88	0.723	0.782	–	–	–	0.693	1.29	0.55	0.319	–	–	–	–	–	–	–	–
LC-2-ad	0.544	0.52	0.357	0.498	0.595	0.624	0.528	0.817	0.874	0.84	0.786	0.883	0.995	0.923	0.816	0.578	0.549	0.491	0.45
LCLC-97TM1	0.443	–	0.369	0.321	0.477	0.425	0.37	0.207	–	0.164	0.177	0.189	0.196	0.192	0.196	0.214	0.308	0.199	0.221
LCLC-103H	–	–	–	–	0.32	0.284	0.363	1.07	1.45	1.08	1.09	0.725	0.716	0.64	0.637	0.51	0.48	0.459	0.493
LK-2	0.983	1.09	0.616	1.03	0.293	0.452	0.201	0.558	0.573	0.23	0.534	0.918	0.933	0.686	0.904	0.877	0.853	0.426	0.614
LOU-NH91	0.683	0.731	0.618	0.752	0.689	0.899	0.733	0.956	0.972	0.877	1.02	0.796	0.857	0.738	0.827	0.516	0.514	0.505	0.54
NCI-H358	–	–	–	–	0.304	0.323	0.252	0.888	0.849	0.707	0.684	0.149	0.139	0.131	0.132	0.135	0.147	0.139	0.15
NCI-H522	–	–	–	–	0.588	0.585	0.661	–	–	–	–	0.804	0.673	0.656	0.753	1.04	1.06	0.825	1.04
NCI-H596	1.05	0.982	0.94	0.9	0.691	0.895	0.859	1.22	1.08	1.07	1	0.806	0.979	0.689	0.795	–	–	–	–
NCI-H650	–	–	–	–	0.431	0.441	0.426	0.94	1.02	0.547	1.17	0.945	1.06	0.953	0.907	0.314	0.373	0.28	0.317
NCI-H661	–	–	–	–	0.269	0.287	0.304	0.493	0.615	0.419	0.439	0.678	0.566	0.516	0.504	0.414	0.434	0.388	0.326
NCI-H1299	1.09	1.06	1.06	0.97	–	–	–	1.09	0.969	0.952	0.907	–	–	–	–	–	–	–	–
NCI-H1563	–	–	–	–	0.658	0.693	0.637	1.19	1.27	1.1	1.08	–	–	–	–	–	–	–	–
NCI-H1648	–	–	–	–	–	–	–	–	–	–	–	0.416	–	0.405	0.439	0.293	–	0.274	0.239
NCI-H1650	1.31	1.26	1.1	1.13	–	0.495	0.234	–	–	–	–	0.623	0.533	0.579	0.599	0.395	0.48	0.354	0.326
NCI-H1703	1.11	1.15	1.1	1.06	–	–	–	0.879	1.1	0.712	0.716	–	–	–	–	–	–	–	–
NCI-H2170	0.5	0.68	0.467	0.657	0.333	0.402	0.386	–	–	–	–	0.994	1.01	0.924	0.857	0.408	0.451	0.386	0.373
NCI-H2342	–	–	–	–	0.674	0.537	0.634	–	–	–	–	0.805	0.889	0.783	0.83	0.547	0.543	0.511	0.53
SW 900	–	–	–	–	0.445	0.672	0.327	–	–	–	–	0.711	0.785	0.759	0.896	0.593	0.562	0.593	0.567
